Counter-ions that a name gives are not always drawn.
How the values were obtained:
human and animal plasma = assay: Determination of anticoagulatory activity: activated partial thromboplastin time (aPTT) in plasma; format: biochemical; settings: C.K. Prest kit, 37° C., 3 minutes incubation, plasma species of Table B not stated
Description: The anticoagulatory activity of the test substances is determined in vitro in human and animal plasma (for example mouse, rat, rabbit, pig and dog plasma). To this end, blood is drawn off in a mixing ratio of sodium citrate/blood of 1:9 using a 0.11 molar sodium citrate solution as receiver. Immediately after the blood has been drawn off, it is mixed thoroughly and centrifuged at about 4000 g for 15 minutes. The supernatant is pipetted off.
The activated partial thromboplastin time (aPTT) is determined in the presence of varying concentrations of test substance or the corresponding solvent using a commercial test kit (C.K. Prest from Diagnostica Stago). The test compounds are incubated with the plasma and the PTT reagent (cephalin, kaolin) at 37° C. for 3 minutes. Coagulation is then started by addition of a 25 mM aqueous calcium chloride solution, and the time when coagulation occurs is determined. The concentration of test substance which brings about a 1.5-fold extension of the aPTT is determined Activity data from this test are listed in Table B below: […]

human factor XIa = target: T1, human factor XIa (Homo sapiens, UniProt P03951); assay: Measurement of FXIa inhibition (fluorogenic peptide substrate Boc-Glu(OBzl)-Ala-Arg-AMC); format: biochemical; settings: factor XIa from Kordia 0.45 nM; 15 min preincubation; 30 min at 22° C.
T1 construct: purchased Kordia
T1 sequence (P03951 388-625 limits assumed): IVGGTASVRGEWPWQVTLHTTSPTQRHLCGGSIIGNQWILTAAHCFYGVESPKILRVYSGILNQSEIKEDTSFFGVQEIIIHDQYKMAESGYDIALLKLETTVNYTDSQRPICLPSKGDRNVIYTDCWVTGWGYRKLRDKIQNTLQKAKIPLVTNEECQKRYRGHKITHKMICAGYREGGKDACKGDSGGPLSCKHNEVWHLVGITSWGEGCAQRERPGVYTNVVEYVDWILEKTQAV
T1 sequence (P03951 19-387 partner limits assumed): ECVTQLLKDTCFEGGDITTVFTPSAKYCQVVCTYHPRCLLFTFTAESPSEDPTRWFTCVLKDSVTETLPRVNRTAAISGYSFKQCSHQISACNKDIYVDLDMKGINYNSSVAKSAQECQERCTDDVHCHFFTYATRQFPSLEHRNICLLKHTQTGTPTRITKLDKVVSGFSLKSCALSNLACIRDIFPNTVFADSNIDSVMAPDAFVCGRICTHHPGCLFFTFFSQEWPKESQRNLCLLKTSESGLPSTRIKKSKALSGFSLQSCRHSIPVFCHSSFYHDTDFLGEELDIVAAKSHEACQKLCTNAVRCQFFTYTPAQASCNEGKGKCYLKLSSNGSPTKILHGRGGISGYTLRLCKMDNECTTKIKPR
Description: The factor XIa inhibition of the substances according to the invention is determined using a biochemical test system which utilizes the reaction of a peptidic factor XIa substrate to determine the enzymatic activity of human factor XIa. Here, factor XIa cleaves from the peptic factor XIa substrate the C-terminal aminomethylcoumarin (AMC), the fluorescence of which is measured. The determinations are carried out in microtitre plates.
Test substances are dissolved in dimethyl sulphoxide and serially diluted in dimethyl sulphoxide (3000 μM to 0.0078 μM; resulting final concentrations in the test: 50 μM to 0.00013 μM). In each case 1 μl of the diluted substance solutions is placed into the wells of white microtitre plates from Greiner (384 wells). Subsequently, the following are added successively: 20 μl of assay buffer (50 mmol/l Tris buffer pH 7.4; 100 mmol/l sodium chloride; 5 mmol/l calcium chloride; 0.1% bovine serum albumin) and 20 μl of factor XIa from Kordia (0.45 nM in assay buffer). After 15 min of incubation, the enzyme reaction is started by addition of 20 μl of the factor XIa substrate Boc-Glu(OBzl)-Ala-Arg-AMC dissolved in assay buffer (10 μM in assay buffer) from Bachem, the mixture is incubated at room temperature (22° C.) for 30 min and fluorescence is then measured (excitation: 360 nm, emission: 460 nm). The measured emissions of the test batches with test substance are compared to those of control batches without test substance (only dimethyl sulphoxide instead of test substance in dimethyl sulphoxide), and IC50 values are calculated from the concentration/activity relationships.

IC50 (human factor XIa) [nM] | Structure (SMILES) | aPTT (concentration of test substance which brings about a 1.5-fold extension of the aPTT) (human and animal plasma) [µmol/L]
10 | NC[C@H]1CC[C@H](C(=O)N[C@@H](Cc2ccc(-c3cccc(C(=O)NC4CCNCC4)c3F)cc2)C(=O)Nc2ccc(-c3nn[nH]n3)cc2)CC1 [Example 15, 4′-[(2S)-2-({[trans-4-(Aminomethyl)cyclohexyl]carbonyl}amino)-3-oxo-3-{[4-(2H-tetrazol-5-yl)phenyl]amino}propyl]-2-fluoro-N-(piperidin-4-yl)biphenyl-3-carboxamide hydrochloride] | 0.52
9 | CCN(CC)CCNC(=O)c1cccc(-c2ccc(C[C@H](NC(=O)[C@H]3CC[C@H](CN)CC3)C(=O)Nc3ccc(-c4nn[nH]n4)cc3)cc2)c1F [Example 16, 4′-[(2S)-2-({[trans-4-(Aminomethyl)cyclohexyl]carbonyl}amino)-3-oxo-3-{[4-(2H-tetrazol-5-yl)phenyl]amino}propyl]-N-[2-(diethylamino)ethyl]-2-fluorobiphenyl-3-carboxamide hydrochloride] | 0.2
9.3 | NC[C@H]1CC[C@H](C(=O)N[C@@H](Cc2ccc(-c3cccc(C(=O)N[C@@H]4CCNC4)c3F)cc2)C(=O)Nc2ccc(-c3nn[nH]n3)cc2)CC1 [Example 17, 4′-[(2S)-2-({[trans-4-(Aminomethyl)cyclohexyl]carbonyl}amino)-3-oxo-3-{[4-(2H-tetrazol-5-yl)phenyl]amino}propyl]-2-fluoro-N-[(3R)-pyrrolidin-3-yl]biphenyl-3-carboxamide hydrochloride] | 0.58
2 | COc1ccc(-c2ccc(C[C@H](NC(=O)[C@H]3CC[C@H](CN)CC3)C(=O)Nc3ccc(-c4nnn[nH]4)cc3)cc2)cc1S(=O)(=O)N1CCOCC1 [Example 24, trans-4-(Aminomethyl)-N-[(2S)-3-[4′-methoxy-3′-(morpholin-4-ylsulphonyl)biphenyl-4-yl]-1-oxo-1-{[4-(1H-tetrazol-5-yl)phenyl]amino}propan-2-yl]cyclohexanecarboxamide hydrochloride] | 0.09
6.1 | Cc1ccc(S(=O)(=O)N2CCOCC2)cc1-c1ccc(C[C@H](NC(=O)[C@H]2CC[C@H](CN)CC2)C(=O)Nc2ccc3[nH]c(=O)[nH]c3c2)cc1 [Example 26, trans-4-(Aminomethyl)-N-{(2S)-3-[2′-methyl-5′-(morpholin-4-ylsulphonyl)biphenyl-4-yl]-1-oxo-1-[(2-oxo-2,3-dihydro-1H-benzimidazol-5-yl)amino]propan-2-yl}cyclohexanecarboxamide hydrochloride] | 0.18
1.5 | Cc1ccc(N(C)C)cc1-c1ccc(C[C@H](NC(=O)[C@H]2CC[C@H](CN)CC2)C(=O)Nc2ccc(-c3nnn[nH]3)cc2)cc1 [Example 28, trans-4-(Aminomethyl)-N-[(2S)-3-[5′-(dimethylamino)-2′-methylbiphenyl-4-yl]-1-oxo-1-{[4-(1H-tetrazol-5-yl)phenyl]amino}propan-2-yl]cyclohexanecarboxamide hydrochloride] | 0.26

Further lines, the compound ahead of its results:

Structure (SMILES) | IC50 (human factor XIa) [nM] | aPTT (concentration of test substance which brings about a 1.5-fold extension of the aPTT) (human and animal plasma) [µmol/L]
NC[C@H]1CC[C@H](C(=O)N[C@@H](Cc2ccc(-c3cccc(C(=O)N4CCNCC4)c3F)cc2)C(=O)Nc2ccc(-c3nn[nH]n3)cc2)CC1 [Example 18, trans-4-(Aminomethyl)-N-[(2S)-3-[2′-fluoro-3′-(piperazin-1-ylcarbonyl)biphenyl-4-yl]-1-oxo-1-{[4-(2H-tetrazol-5-yl)phenyl]amino}propan-2-yl]cyclohexanecarboxamide hydrochloride] | 16 | 0.35
CCN(CC)CCCNC(=O)c1ccc(C)c(-c2ccc(C[C@H](NC(=O)[C@H]3CC[C@H](CN)CC3)C(=O)Nc3ccc(-c4nn[nH]n4)cc3)cc2)c1 [Example 19, 4′-[(2S)-2-({[trans-4-(Aminomethyl)cyclohexyl]carbonyl}amino)-3-oxo-3-{[4-(2H-tetrazol-5-yl)phenyl]amino}propyl]-N-[3-(diethylamino)propyl]-6-methylbiphenyl-3-carboxamide hydrochloride] | 6.4 | 0.26
NC[C@H]1CC[C@H](C(=O)N[C@@H](Cc2ccc(-c3cccc(C(=O)N4CCOCC4)c3)cc2)C(=O)Nc2ccc(-c3nn[nH]n3)cc2)CC1 [Example 20, trans-4-(Aminomethyl)-N-[(2S)-3-[3′-(morpholin-4-ylcarbonyl)biphenyl-4-yl]-1-oxo-1-{[4-(2H-tetrazol-5-yl)phenyl]amino}propan-2-yl]cyclohexanecarboxamide hydrochloride] | 2.7 | 0.39
Cc1ccc(C#N)cc1-c1ccc(C[C@H](NC(=O)[C@H]2CC[C@H](CN)CC2)C(=O)Nc2ccc(-c3nn[nH]n3)cc2)cc1 [Example 21, trans-4-(Aminomethyl)-N-[(2S)-3-(5′-cyano-2′-methylbiphenyl-4-yl)-1-oxo-1-{[4-(2H-tetrazol-5-yl)phenyl]amino}propan-2-yl]cyclohexanecarboxamide hydrochloride] | 8.3 | 0.22
Cc1ccc(-c2ccc(C[C@H](NC(=O)[C@H]3CC[C@H](CN)CC3)C(=O)Nc3ccc(-c4nn[nH]n4)cc3)cc2)cc1NC(=O)C1CCNCC1 [Example 22, N-{4[(2S)-2-({[trans-4-(Aminomethyl)cyclohexyl]carbonyl}amino)-3-oxo-3-{[4-(2H-tetrazol-5-yl)phenyl]amino}propyl]-4-methylbiphenyl-3-yl}piperidine-4-carboxamide hydrochloride] | 25 | 0.34
CCc1ccc(C(=O)NCCN(CC)CC)cc1-c1ccc(C[C@H](NC(=O)[C@H]2CC[C@H](CN)CC2)C(=O)Nc2ccc(-c3nn[nH]n3)cc2)cc1 [Example 23, 4′-[(2S)-2-({[trans-4-(Aminomethyl)cyclohexyl]carbonyl}amino)-3-oxo-3-{[4-(2H-tetrazol-5-yl)phenyl]amino}propyl]-N-[2-(diethylamino)ethyl]-6-ethylbiphenyl-3-carboxamide hydrochloride] | 13 | 0.36
Cc1ccc(S(=O)(=O)N(C)C)cc1-c1ccc(C[C@H](NC(=O)[C@H]2CC[C@H](CN)CC2)C(=O)Nc2ccc3[nH]c(=O)[nH]c3c2)cc1 [Example 25, trans-4-(Aminomethyl)-N-{(2S)-3-[5′-(dimethylsulphamoyl)-2′-methylbiphenyl-4-yl]-1-oxo-1-[(2-oxo-2,3-dihydro-1H-benzimidazol-5-yl)amino]propan-2-yl}cyclohexanecarboxamide hydrochloride] | 6.1 | 0.15
NC[C@H]1CC[C@H](C(=O)N[C@@H](Cc2ccc(-c3cccc(C(=O)NCCN4CCOCC4)c3)cc2)C(=O)Nc2ccc(-c3nnn[nH]3)cc2)CC1 [Example 27, 4′-[(2S)-2-({[trans-4-(Aminomethyl)cyclohexyl]carbonyl}amino)-3-oxo-3-{[4-(1H-tetrazol-5-yl)phenyl]amino}propyl]-N-[2-(morpholin-4-yl)ethyl]biphenyl-3-carboxamide hydrochloride] | 6 | 0.19
